This is an account of results in publication PMC10702309 (ACS Omega, 2023).

“Also recorded” adds a separate entry of the source. Where two headings read alike, the source gives them in different places.

The target in test [1] is T1, jack bean urease (Canavalia ensiformis, UniProt P07374). The test can be described thus: Antiurease assay. The test is classed as biochemical. The following applies: for % inhibition (urease): inhibitor concentration not given.
The target of test [2] is T1, jack bean urease. In words: Enzyme kinetic studies. The test is classed as biochemical. The following applies: for Vmax (app): at an inhibitor concentration of 20 μM; for mode of inhibition: urease, Lineweaver–Burk plots.

T1 sequence (P07374 whole entry, looked up): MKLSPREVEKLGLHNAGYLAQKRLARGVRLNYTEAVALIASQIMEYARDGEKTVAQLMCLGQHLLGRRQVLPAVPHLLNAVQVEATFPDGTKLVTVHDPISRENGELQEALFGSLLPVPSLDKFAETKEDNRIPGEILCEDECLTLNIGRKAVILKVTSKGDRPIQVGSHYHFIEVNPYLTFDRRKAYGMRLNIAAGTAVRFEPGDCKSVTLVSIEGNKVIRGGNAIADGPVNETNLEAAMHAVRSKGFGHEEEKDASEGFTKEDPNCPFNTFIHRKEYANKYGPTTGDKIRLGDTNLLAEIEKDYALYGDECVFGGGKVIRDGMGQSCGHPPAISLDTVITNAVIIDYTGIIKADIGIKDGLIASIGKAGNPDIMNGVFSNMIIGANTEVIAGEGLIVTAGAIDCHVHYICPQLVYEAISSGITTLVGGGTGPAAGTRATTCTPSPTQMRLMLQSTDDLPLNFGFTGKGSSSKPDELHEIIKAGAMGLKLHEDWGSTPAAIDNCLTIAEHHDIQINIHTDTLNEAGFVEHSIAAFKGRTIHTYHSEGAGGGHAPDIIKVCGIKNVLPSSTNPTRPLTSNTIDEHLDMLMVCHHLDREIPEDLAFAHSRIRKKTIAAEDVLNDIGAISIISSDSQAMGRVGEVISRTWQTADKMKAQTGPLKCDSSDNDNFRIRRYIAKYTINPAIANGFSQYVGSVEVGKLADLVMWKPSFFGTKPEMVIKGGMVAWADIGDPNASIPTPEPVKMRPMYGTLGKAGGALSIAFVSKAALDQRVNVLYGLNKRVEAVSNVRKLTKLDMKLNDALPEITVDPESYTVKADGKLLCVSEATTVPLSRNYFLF

By IC50 is commonly meant the concentration needed to halve the response being measured. Usually Ki stands for the equilibrium dissociation constant of an inhibitor or competing ligand from its target. In test [1], `Cc1ccnc(NS(=O)(=O)c2ccc(NC(=O)Cc3ccccc3Nc3c(Cl)cccc3Cl)cc2)n1` [conjugate 8, 2-(2-((2,6-Dichlorophenyl)amino)phenyl)-N-(4-(N-(4-methylpyrimidin-2-yl)sulfamoyl)phenyl)acetamide] showed an IC50 of 9.5 ± 0.28 µM. Also, the “% inhibition (urease)” value in test [1] (jack bean urease) was found to be 85.9%. Also, in test [2], the affinity, expressed as Ki, was 10.8 µM; the “Vmax (app)” value is 2.27 µM/min; the mode of inhibition result is listed as “mixed”.
`NC(N)=S` [thiourea, reference compound]: the “% inhibition (urease)” value in test [1] (jack bean urease) turned out to be 92.3%. For the same compound, the IC50 in test [1] (read-out: IC50 (μM), mean ± SEM, jack bean urease, mean ± SEM) was 22.6 ± 0.23 µM. In test [2], the “Vmax (app)” value came out at 18.61 µM/min and the mode of inhibition entry was “competitive”. Also, in test [2] (read-out: Ki (inhibition constant), calculated from secondary Lineweaver–Burk plots), the inhibition constant Ki is 18.2 µM.
Consider `Cc1cccc(Nc2ccccc2C(=O)Nc2ccc(S(=O)(=O)Nc3ncccn3)cc2)c1C` [conjugate 15, 2-((2,3-Dimethylphenyl)amino)-N-(4-(N-(pyrimidin-2-yl)sulfamoyl)phenyl)benzamide], for which half-maximal inhibition in test [1] (IC50) was put at 7.92 ± 0.27 µM. Moreover, the “% inhibition (urease)” value in test [1] (jack bean urease) amounted to 84.9%. Further, in test [2], the affinity corresponds to a Ki of 1.04 µM, the “Vmax (app)” value worked out at 6.36 µM/min and the mode of inhibition result is “mixed”.
Turning to `Cc1cccc(Nc2ccccc2C(=O)Nc2ccc(S(N)(=O)=O)cc2)c1C` [conjugate 12, 2-((2,3-Dimethylphenyl)amino)-N-(4-sulfamoylphenyl)benzamide], the concentration for half-maximal inhibition (IC50) in test [1] was 18.7 ± 0.21 µM. In test [1] (jack bean urease), the “% inhibition (urease)” value is given as 91.6%. In test [2], the inhibitory constant (Ki) came out at 3.06 µM, the “Vmax (app)” value stood at 8.62 µM/min and the mode of inhibition entry is “competitively; also recorded: competitive”.
In test [1], `Cc1cc(NS(=O)(=O)c2ccc(NC(=O)Cc3ccccc3Nc3c(Cl)cccc3Cl)cc2)no1` [conjugate 9, 2-(2-((2,6-Dichlorophenyl)amino)phenyl)-N-(4-(N-(5-methylisoxazol-3-yl)sulfamoyl)phenyl)acetamide] returned a half-inhibitory concentration (IC50) of 33.34 ± 0.21 µM. Further, the “% inhibition (urease)” value in test [1] (jack bean urease) amounted to 77.3%.
For `Cc1cccc(Nc2ccccc2C(=O)Nc2ccc(S(=O)(=O)Nc3nccs3)cc2)c1C` [conjugate 14, 2-((2,3-Dimethylphenyl)amino)-N-(4-(N-(thiazol-2-yl)sulfamoyl)phenyl)benzamide], the IC50 in test [1] was determined as 14.8 ± 0.27 µM. For the same compound, in test [1] (jack bean urease), the “% inhibition (urease)” value came to 82.9%. In addition, in test [2], the Ki came out at 1.65 µM, the “Vmax (app)” value turned out to be 2.28 µM/min and the mode of inhibition result was “mixed”.
`Cc1cccc(Nc2ccccc2C(=O)Nc2ccc(S(=O)(=O)Nc3onc(C)c3C)cc2)c1C` [conjugate 13, N-(4-(N-(3,4-Dimethylisoxazol-5-yl)sulfamoyl)phenyl)-2-((2,3-dimethylphenyl)amino)benzamide]: half-maximal inhibition in test [1] (IC50) was put at 15.9 ± 0.25 µM. Besides, in test [1] (jack bean urease), the “% inhibition (urease)” value is reported as 94.1%. Besides, in test [2], the inhibition constant Ki turned out to be 4.82 µM, the “Vmax (app)” value worked out at 3.03 µM/min and the mode of inhibition result is “mixed”.
In test [1], `Cc1noc(NS(=O)(=O)c2ccc(NC(=O)Cc3ccccc3Nc3c(Cl)cccc3Cl)cc2)c1C` [conjugate 5, 2-(2-((2,6-Dichlorophenyl)amino)phenyl)-N-(4-(N-(3,4-dimethylisoxazol-5-yl)sulfamoyl)phenyl)acetamide] had an IC50 of 23.1 ± 0.49 µM. Also, the “% inhibition (urease)” value in test [1] (jack bean urease) is 73.4%.
Taken in the same sequence, the figures for `Cc1cccc(Nc2ccccc2C(=O)Nc2ccc(S(=O)(=O)NC(=N)N)cc2)c1C` [conjugate 19, N-(4-(N-Carbamimidoylsulfamoyl)phenyl)-2-((2,3-dimethylphenyl)amino)benzamide] were 31.32 ± 0.29 µM and 79.2%.
Turning to `CC(=O)NS(=O)(=O)c1ccc(NC(=O)Cc2ccccc2Nc2c(Cl)cccc2Cl)cc1` [conjugate 10, N-(4-(N-Acetylsulfamoyl)phenyl)-2-(2-((2,6-dichlorophenyl)amino)phenyl)acetamide], the IC50 in test [1] turned out to be 5.49 ± 0.34 µM. Also, the “% inhibition (urease)” value in test [1] (jack bean urease) amounted to 84.5%. Moreover, in test [2], the Ki was determined as 2.73 µM, the “Vmax (app)” value was 3.46 µM/min and the mode of inhibition result is “competitively; also recorded: competitive”.
In turn, `Cc1ccnc(NS(=O)(=O)c2ccc(NC(=O)c3ccccc3Nc3cccc(C)c3C)cc2)n1` [conjugate 16, 2-((2,3-Dimethylphenyl)amino)-N-(4-(N-(4-methylpyrimidin-2-yl)sulfamoyl)phenyl)benzamide] showed a concentration for half-maximal inhibition (IC50) in test [1] of 94.99 ± 0.22 µM. In addition, the “% inhibition (urease)” value in test [1] (jack bean urease) is reported as 68.3%.
The corresponding values for `O=C(Cc1ccccc1Nc1c(Cl)cccc1Cl)Nc1ccc(S(=O)(=O)Nc2ncccn2)cc1` [conjugate 7, 2-(2-((2,6-Dichlorophenyl)amino)phenyl)-N-(4-(N-(pyrimidin-2-yl)sulfamoyl)phenyl)acetamid] are 30.49 ± 0.28 µM and 83.6%.
For `CC(=O)NS(=O)(=O)c1ccc(NC(=O)c2ccccc2Nc2cccc(C)c2C)cc1` [conjugate 18, N-(4-(N-Acetylsulfamoyl)phenyl)-2-((2,3-dimethylphenyl)amino)benzamide], in test [1], half-maximal inhibition (IC50) was put at 36.08 ± 0.28 µM. Besides, the “% inhibition (urease)” value in test [1] (jack bean urease) is listed as 64.1%.
Consider `O=C(Cc1ccccc1Nc1c(Cl)cccc1Cl)Nc1ccc(S(=O)(=O)Nc2nccs2)cc1` [conjugate 6, 2-(2-((2,6-Dichlorophenyl)amino)phenyl)-N-(4-(N-(thiazol-2-yl)sulfamoyl)phenyl)acetamide], for which it took 16.2 ± 0.21 µM to reach half-maximal inhibition in test [1] (IC50). For the same compound, the “% inhibition (urease)” value in test [1] (jack bean urease) came to 71.3%. In addition, in test [2], the Ki was found to be 16.3 µM, the “Vmax (app)” value was 0.755 µM/min and the mode of inhibition result is given as “mixed”.
In turn, `N=C(N)NS(=O)(=O)c1ccc(NC(=O)Cc2ccccc2Nc2c(Cl)cccc2Cl)cc1` [conjugate 11, N-(4-(N-Carbamimidoylsulfamoyl)phenyl)-2-(2-((2,6-dichlorophenyl)amino)phenyl)acetamide] registered an IC50 in test [1] of 4.35 ± 0.23 µM. For the same compound, in test [1] (jack bean urease), the “% inhibition (urease)” value is 78.7%. Besides, in test [2], the Ki was 1.09 µM, the “Vmax (app)” value is 1.11 µM/min and the mode of inhibition result is listed as “mixed”.
In turn, `Cc1cc(NS(=O)(=O)c2ccc(NC(=O)c3ccccc3Nc3cccc(C)c3C)cc2)no1` [conjugate 17, 2-((2,3-Dimethylphenyl)amino)-N-(4-(N-(5-methylisoxazol-3-yl)sulfamoyl)phenyl)benzamide] returned a 50% inhibitory concentration (IC50) in test [1] of 8.35 ± 0.26 µM. Further, in test [2], the Ki was found to be 0.46 µM, the “Vmax (app)” value was 8.54 µM/min and the mode of inhibition entry is listed as “competitively; also recorded: competitive”.
